From US20170042151A1, “SAFENED HERBICIDAL COMPOSITIONS COMPRISING PYRIDINE CARBOXYLIC ACIDS” (Dow AgroSciences LLC, priority 2015, published 2017)

Experiments:
Assay type in all cases: in vivo
[1] = system: TRZAW = Triticum aestivum (winter wheat); test: Greenhouse post-emergence phytotoxicity (% visual injury) on wheat
Protocol: (§1) In addition, the efficacy of the herbicidal composition on wild mustard (SINAR), wild chamomile (MATCH), wild pansy (VIOTR), shepherd's purse ([…]), pigweed (AMARE), and Canada thistle (CIRAR) was evaluated. […] When required to ensure good germination and healthy plants, a fungicide treatment and/or other chemical or physical treatment was applied. The plants were grown for 7-36 days (d) in a greenhouse with an approximate 14-hour (h) photoperiod which was maintained at about 18° C. during the day and 17° C. during the night. Nutrients and water were added on a regular basis and supplemental lighting was provided with overhead metal halide 1000-Watt lamps as necessary. The plants were employed for testing when they reached the second or third true leaf stage. Weighed amounts of technical material were dissolved in a volume of 97:3 volume per volume (v/v) acetone/dimethyl sulfoxide (DMSO) to stock solutions. […] Stock solutions of the safeners were prepared following the same procedure. […] Control plants were sprayed in the same manner with the solvent blank. The treated plants and control plants were placed in a greenhouse as described above and watered by sub-irrigation to prevent wash-off of the test compounds. […] Colby's equation was used to determine the herbicidal effects expected from the mixtures.

[2] = system: HORVS = Hordeum vulgare (spring barley); test: Greenhouse post-emergence phytotoxicity (% visual injury) on spring barley
Protocol: as §1

[3] = system: SINAR = Sinapis arvensis (wild mustard); test: Greenhouse post-emergence efficacy (% visual injury) on wild mustard; conditions: 20-22 d
Protocol: (§2) The herbicide of formula I-G-A was combined with isoxadifen-ethyl or mefenpyr-diethyl, and applied to spring wheat (TRZAS) and spring barley (HORVS) and the phytotoxicity of the herbicidal composition was measured. In addition, the efficacy of the herbicidal composition on wild mustard (SINAR), wild chamomile (MATCH), wild pansy (VIOTR), shepherd's purse (CAPBP), kochia (KCHSC), lambsquarters (CHEAL), pigweed (AMARE), and Canada thistle (CIRAR) was evaluated. The results for herbicide I-G-A with isoxadifen-ethyl and mefenpyr-diethyl are summarized in Table 7 and Table 8, respectively.
(§3) Seeds of the desired test plant species were planted in Sun Gro MetroMix® 360 planting mixture, which typically has a pH of 6.0 to 6.8 and an organic matter content of about 30 percent, in plastic pots with a surface area of 103.2 square centimeters (cm^2). When required to ensure good germination and healthy plants, a fungicide treatment and/or other chemical or physical treatment was applied. The plants were grown for 7-36 days (d) in a greenhouse with an approximate 14-hour (h) photoperiod which was maintained at about 18° C. during the day and 17° C. during the night. Nutrients and water were added on a regular basis and supplemental lighting was provided with overhead metal halide 1000-Watt lamps as necessary. The plants were employed for testing when they reached the second or third true leaf stage.
(§4) Weighed amounts of technical material were dissolved in a volume of 97:3 volume per volume (v/v) acetone/dimethyl sulfoxide (DMSO) to stock solutions. […] Compound requirements are based upon a 12 milliliter (mL) application volume at a rate of 187 liters per hectare (L/ha). Stock solutions of the safeners were prepared following the same procedure. Spray solutions of the safeners and experimental compound mixtures were prepared by adding the stock solutions to the appropriate amount of dilution solution to form a 12 mL spray solution in two-way combinations. Formulated compounds were applied to the plant material with an overhead Mandel track sprayer equipped with 8002E nozzles calibrated to deliver 187 L/ha over an application area of 0.503 square meters (m^2) at a spray height of 18 inches (43 centimeters (cm)) above average plant canopy. Control plants were sprayed in the same manner with the solvent blank.
(§5) The treated plants and control plants were placed in a greenhouse as described above and watered by sub-irrigation to prevent wash-off of the test compounds. After 20-22 d, the condition of the test plants as compared with that of the control plants was determined visually and scored on a scale of 0 to 100 percent where 0 corresponds to no injury and 100 corresponds to complete kill. Colby's equation was used to determine the herbicidal effects expected from the mixtures.

[4] = system: CAPBP = Capsella bursa-pastoris (shepherd's purse); test: Greenhouse post-emergence efficacy (% visual injury) on shepherd's purse; conditions: 20-22 d
Protocol: as §2, §3, §4, §5

[5] = system: CHEAL = Chenopodium album (lambsquarters); test: Greenhouse post-emergence efficacy (% visual injury) on lambsquarters; conditions: 20-22 d
Protocol: as §2, §3, §4, §5

[6] = system: VIOTR = Viola tricolor (wild pansy); test: Greenhouse post-emergence efficacy (% visual injury) on wild pansy; conditions: 20-22 d
Protocol: as §2, §3, §4, §5

[7] = system: KCHSC = Kochia scoparia (kochia); test: Greenhouse post-emergence efficacy (% visual injury) on kochia; conditions: 20-22 d
Protocol: as §2, §3, §4, §5

[8] = system: AMARE = Amaranthus retroflexus (pigweed); test: Greenhouse post-emergence efficacy (% visual injury) on pigweed; conditions: 20-22 d
Protocol: as §2, §3, §4, §5

[9] = system: CIRAR = Cirsium arvense (Canada thistle); test: Greenhouse post-emergence efficacy (% visual injury) on Canada thistle; conditions: 20-22 d
Protocol: as §2, §3, §4, §5

[10] = system: MATCH = Matricaria recutita (wild chamomile); test: Greenhouse post-emergence efficacy (% visual injury) on wild chamomile; conditions: 20-22 d
Protocol: as §2, §3, §4, §5

[11] = safener 20 g ai/ha alone, 20-22 d
[12] = safener 40 g ai/ha alone, 20-22 d
[13] = safener 80 g ai/ha alone, 20-22 d
[14] = herbicide 20 g ae/ha alone, 20-22 d

With `C=CCN(CC=C)C(=O)C(Cl)Cl` [dichlormid, N,N-diallyl-2,2-dichloroacetamide] the “Effect (% visual injury) TRZAW Obs” value [1, 11] was 0%, the “Effect (% visual injury) TRZAW Obs” value [1, 12] was 0% and the “Effect (% visual injury) TRZAW Obs” value [1, 13] was 0%. For the same compound, the “Effect (% visual injury) HORVS Obs” value [2, 11] was 0%, the “Effect (% visual injury) HORVS Obs” value [2, 12] was 0% and the “Effect (% visual injury) HORVS Obs” value [2, 13] was 0%.

In the case of `Clc1cc(Cl)nc(-c2ccccc2)n1` [fenclorim, 4,6-dichloro-2-phenylpyrimidine], the “Effect (% visual injury) TRZAW Obs” value ([1]; in vivo) is reported as 0% and the “Effect (% visual injury) HORVS Obs” value ([2]; in vivo) is reported as 0%.

`CCOC(=O)C1=NN(c2ccc(Cl)cc2Cl)C(C)(C(=O)OCC)C1` (racemic) [mefenpyr-diethyl, (RS)-1-(2,4-dichlorophenyl)-5-methyl-2-pyrazoline-3,5-dicarboxylate] was tested, and the “Effect (% visual injury) SINAR Obs” value ([3]; safener 20 g ai/ha alone) was 0%, the “Effect (% visual injury) SINAR Obs” value ([3]; safener 40 g ai/ha alone) was 0% and the “Effect (% visual injury) SINAR Obs” value ([3]; safener 80 g ai/ha alone) was 0%. The “Effect (% visual injury) CAPBP Obs” value ([4]; safener 20 g ai/ha alone) was 0%, the “Effect (% visual injury) CAPBP Obs” value ([4]; safener 40 g ai/ha alone) was 0% and the “Effect (% visual injury) CAPBP Obs” value ([4]; safener 80 g ai/ha alone) was 0%. For the same compound, the “Effect (% visual injury) TRZAW Obs” value [1, 11] was 0%, the “Effect (% visual injury) TRZAW Obs” value [1, 12] was 0% and the “Effect (% visual injury) TRZAW Obs” value [1, 13] was 0%. The “Effect (% visual injury) CHEAL Obs” value ([5]; safener 20 g ai/ha alone) was 0%, the “Effect (% visual injury) CHEAL Obs” value ([5]; safener 40 g ai/ha alone) was 0% and the “Effect (% visual injury) CHEAL Obs” value ([5]; safener 80 g ai/ha alone) was 0%. For the same compound, the “Effect (% visual injury) VIOTR Obs” value ([6]; safener 20 g ai/ha alone) was 0%, the “Effect (% visual injury) VIOTR Obs” value ([6]; safener 40 g ai/ha alone) was 0% and the “Effect (% visual injury) VIOTR Obs” value ([6]; safener 80 g ai/ha alone) was 0%. For the same compound, the “Effect (% visual injury) KCHSC Obs” value ([7]; safener 20 g ai/ha alone) was 0%, the “Effect (% visual injury) KCHSC Obs” value ([7]; safener 40 g ai/ha alone) was 0% and the “Effect (% visual injury) KCHSC Obs” value ([7]; safener 80 g ai/ha alone) was 0%. For the same compound, the “Effect (% visual injury) AMARE Obs” value ([8]; safener 20 g ai/ha alone) was 0%, the “Effect (% visual injury) AMARE Obs” value ([8]; safener 40 g ai/ha alone) was 0% and the “Effect (% visual injury) AMARE Obs” value ([8]; safener 80 g ai/ha alone) was 0%. The “Effect (% visual injury) CIRAR Obs” value ([9]; safener 20 g ai/ha alone) was 0%, the “Effect (% visual injury) CIRAR Obs” value ([9]; safener 40 g ai/ha alone) was 0% and the “Effect (% visual injury) CIRAR Obs” value ([9]; safener 80 g ai/ha alone) was 0%. For the same compound, the “Effect (% visual injury) MATCH Obs” value ([10]; safener 20 g ai/ha alone) was 0%, the “Effect (% visual injury) MATCH Obs” value ([10]; safener 40 g ai/ha alone) was 0% and the “Effect (% visual injury) MATCH Obs” value ([10]; safener 80 g ai/ha alone) was 0%. For the same compound, the “Effect (% visual injury) HORVS Obs” value [2, 11] was 0%, the “Effect (% visual injury) HORVS Obs” value [2, 12] was 0% and the “Effect (% visual injury) HORVS Obs” value [2, 13] was 0%.

With `NC(=O)NS(=O)(=O)c1ccccc1Cl` [2-CBSU, N-(aminocarbonyl)-2-chlorobenzenesulfonamide] the “Effect (% visual injury) TRZAW Obs” value ([1]; in vivo) was 0% and the “Effect (% visual injury) HORVS Obs” value ([2]; in vivo) was 0%.

In the case of `O=C(O)c1nc(C(Cl)(Cl)Cl)n(-c2ccc(Cl)cc2Cl)n1` [fenchlorazole, 1-(2,4-dichlorophenyl)-5-(trichloromethyl)-1H-1,2,4-triazole-3-carboxylic acid], the “Effect (% visual injury) TRZAW Obs” value [1, 11] is reported as 0%, the “Effect (% visual injury) TRZAW Obs” value [1, 12] is reported as 0% and the “Effect (% visual injury) TRZAW Obs” value [1, 13] is reported as 0%. For the same compound, the “Effect (% visual injury) HORVS Obs” value [2, 11] was 0%, the “Effect (% visual injury) HORVS Obs” value [2, 12] was 0% and the “Effect (% visual injury) HORVS Obs” value [2, 13] was 0%.

With `O=C1OC(=O)c2cccc3cccc1c23` [naphthalic anhydride] the “Effect (% visual injury) TRZAW Obs” value ([1]; in vivo) was 0% and the “Effect (% visual injury) HORVS Obs” value ([2]; in vivo) was 0%.

In the case of `CC1COc2ccccc2N1C(=O)C(Cl)Cl` (racemic) [benoxacor, (±)-4-(dichloroacetyl)-3,4-dihydro-3-methyl-2H-1,4-benzoxazine], the “Effect (% visual injury) TRZAW Obs” value ([1]; in vivo) is reported as 0% and the “Effect (% visual injury) HORVS Obs” value ([2]; in vivo) is reported as 0%.

For `CCc1nc(C(=O)O)c(Cl)c(N)c1F` [I-G-A], the “Effect (% visual injury) SINAR Obs” value ([3]; herbicide 20 g ae/ha alone) was 97%, the “Effect (% visual injury) CAPBP Obs” value ([4]; herbicide 20 g ae/ha alone) was 100% and the “Effect (% visual injury) TRZAW Obs” value [1, 14] was 25%. The “Effect (% visual injury) CHEAL Obs” value ([5]; herbicide 20 g ae/ha alone) was 95%, the “Effect (% visual injury) VIOTR Obs” value ([6]; herbicide 20 g ae/ha alone) was 60% and the “Effect (% visual injury) KCHSC Obs” value ([7]; herbicide 20 g ae/ha alone) was 20%. For the same compound, the “Effect (% visual injury) AMARE Obs” value ([8]; herbicide 20 g ae/ha alone) was 20%, the “Effect (% visual injury) CIRAR Obs” value ([9]; herbicide 20 g ae/ha alone) was 80% and the “Effect (% visual injury) MATCH Obs” value ([10]; herbicide 20 g ae/ha alone) was 80%. The “Effect (% visual injury) HORVS Obs” value [2, 14] was 13%.
